According to patent publication US20260184675A1, “CHIRAL ISOMERIC SULFITE COMPOUND AND APPLICATION THEREOF” (Chengdu Hanova BioSciences Co., Ltd, priority 2024, published 2026):

Test system: eggs of Panonychus citri
Test: Effect on hatching of eggs of Panonychus citri, leaf disc method
Type: in vivo
Details: 1 ppm; for Hatching rate (%), Replicate 1 / Hatching rate (%), Replicate 2 / Hatching rate (%), Replicate 3 / Number of hatched larvae 5 days after insecticide delivery, Replicate 1 / Number of hatched larvae 5 days after insecticide delivery, Replicate 2 / Number of hatched larvae 5 days after insecticide delivery, Replicate 3: Panonychus citri eggs; for Hatching rate (%), Replicate 1 / Hatching rate (%), Replicate 2 / Hatching rate (%), Replicate 3: 5 days after delivery; for Number of hatched larvae 5 days after insecticide delivery, Replicate 1 / Number of hatched larvae 5 days after insecticide delivery, Replicate 2 / Number of hatched larvae 5 days after insecticide delivery, Replicate 3: leaf disc
Protocol: • (1) Preparation of leaf discs containing eggs: 20 female adult mites of Tetranychus cinnabarinus were transferred onto leaf discs of Vicia faba with a diameter of 2.0 cm (with wetted filter paper at the bottom), then covered it with a lidded culture dish and cultivated under moisturizing conditions, the adult mites were removed within 36 hours and microscopic examination and counting were performed on leaf discs containing eggs. • (2) Investigation of egg population base: Before pesticide soaking, a microscopic examination was conducted on the egg basic number of each leaf disc, with 2 replicates set for each treatment. • (3) Pesticide soaking treatment: The leaf butterflies loaded with mite eggs were soaked in clear water and sulfite compounds for 10 seconds, respectively, then taken out and cultivated under moisturizing conditions. Each treatment should be repeated for no less than 3 times. • (4) Cultivation and observation: The […] were cultivated under normal conditions. Five days after insecticide delivery, the hatching status of mite eggs was investigated. • Note: The temperature and humidity conditions of the constant temperature and humidity incubator after the treatment should be controlled so as to avoid excessive temperature differences, which may cause generation and dripping of condensate water in the culture dish, resulting in abnormal death of eggs due to soaking in water; it is also necessary to ensure sufficient strong ambient light, without directing irradiating the leaves. • (5) Survey of Results: The experimental materials of each treatment group were regularly hydrated and moisturized, and the hatching of eggs was observed. On the 7th day after insecticide delivery, the number of hatched eggs for each treatment was recorded, and the survey of results was recorded in the original notebook. According to the experimental requirements and characteristics of agents, the survey time can be shortened or extended.
• 1) Surveying and recording the number of hatched eggs for each treatment. • 2) Photographing and recording whether there was any pesticide damage to the leaf discs of Vicia faba. • 3) Recording the developmental status of experimental mite eggs, behavior status of nymph mites, including abnormal phenomena such as delayed or stopped development of mite eggs, difficulty in breaking hull for nymph mites, or painful struggles after hatching, etc. • (6) Calculation method: Based on the survey data, the prevention and control effect of each treatment was calculated according to the following formula, and the calculation results were kept to two decimal places.
This test adopted the method in Test Example 1 of technical section, mainly used leaf disc method to explore the effect on hatching of eggs of Panonychus citri by compounds 1-(S,S), 1-(S,R), 1-(R,R), 1-(R,S), 1′-(S,S), 1′-(S,R), 1′-(R,R), 1′-(R,S), compound 1, compound 1′, S-10, R-10, S-10′, R-10′, compound 10, compound 10′, compound 19-(S,S), 19-(S,R), 19-(R,R), 19-(R,S), 19′-(S,S), 19′-(S,R), 19′-(R,R), 19′-(R,S), compound 19, and compound 19′. The concentration of all compounds was 1 ppm.

Structure (SMILES)	inhibitory effect on the hatching of eggs of Panonychus citri (in words)	Hatching rate (%), Replicate 1 [%]	Hatching rate (%), Replicate 2 [%]	Hatching rate (%), Replicate 3 [%]	Number of hatched larvae 5 days after insecticide delivery, Replicate 1	Number of hatched larvae 5 days after insecticide delivery, Replicate 2	Number of hatched larvae 5 days after insecticide delivery, Replicate 3	further results
CCC(COc1ccc(Cl)cc1Cl)OS(=O)OCCF [19-(S,S)]								Hatching rate (%), Replicate 1 (listed as 19-(S, S)): 10.08%; Hatching rate (%), Replicate 2 (listed as 19-(S, S)): 9.90%; Hatching rate (%), Replicate 3 (listed as 19-(S, S)): 10.47%; Number of hatched larvae 5 days after insecticide delivery, Replicate 1 (listed as 19-(S, S)): 12; Number of hatched larvae 5 days after insecticide delivery, Replicate 2 (listed as 19-(S, S)): 10; Number of hatched larvae 5 days after insecticide delivery, Replicate 3 (listed as 19-(S, S)): 9
CC(C)(COc1ccc(Cl)cc1Cl)OS(=O)OCCF (stereo not drawn) [Compound S-10]	good inhibitory effects	0.00	0.00	0.00	0	0	0	
CC(COc1ccc(Cl)cc1Cl)OS(=O)OCCF [1′-(R,R)]								Hatching rate (%), Replicate 1 (listed as 1′-(R, R)): 8.33%; Hatching rate (%), Replicate 2 (listed as 1′-(R, R)): 7.07%; Hatching rate (%), Replicate 3 (listed as 1′-(R, R)): 5.51%; Number of hatched larvae 5 days after insecticide delivery, Replicate 1 (listed as 1′-(R, R)): 6; Number of hatched larvae 5 days after insecticide delivery, Replicate 2 (listed as 1′-(R, R)): 7; Number of hatched larvae 5 days after insecticide delivery, Replicate 3 (listed as 1′-(R, R)): 7
CC(COc1ccc(Cl)cc1Cl)OS(=O)OCCF (stereo not drawn) [Compound 1′]	good inhibitory effects	0.93	0.00	0.00	1	0	0	
CC[C@@H](COS(=O)OCCF)Oc1ccc(Cl)cc1Cl (stereo partly drawn) [19′-(S,S)]	good inhibitory effects							Hatching rate (%), Replicate 1 (listed as 19′-(S, S)): 0.00%; Hatching rate (%), Replicate 2 (listed as 19′-(S, S)): 0.00%; Hatching rate (%), Replicate 3 (listed as 19′-(S, S)): 0.00%; Number of hatched larvae 5 days after insecticide delivery, Replicate 1 (listed as 19′-(S, S)): 0; Number of hatched larvae 5 days after insecticide delivery, Replicate 2 (listed as 19′-(S, S)): 0; Number of hatched larvae 5 days after insecticide delivery, Replicate 3 (listed as 19′-(S, S)): 0
C[C@@H](COS(=O)OCCF)Oc1ccc(Cl)cc1Cl (stereo partly drawn) [1-(S,S)]	good inhibitory effects							Hatching rate (%), Replicate 1 (listed as 1-(S, S)): 0.00%; Hatching rate (%), Replicate 2 (listed as 1-(S, S)): 0.00%; Hatching rate (%), Replicate 3 (listed as 1-(S, S)): 0.00%; Number of hatched larvae 5 days after insecticide delivery, Replicate 1 (listed as 1-(S, S)): 0; Number of hatched larvae 5 days after insecticide delivery, Replicate 2 (listed as 1-(S, S)): 0; Number of hatched larvae 5 days after insecticide delivery, Replicate 3 (listed as 1-(S, S)): 0
CC(C)(COS(=O)OCCF)Oc1ccc(Cl)cc1Cl (stereo not drawn) [Compound 10′]	good inhibitory effects	0.00	0.73	0.92	0	1	1	
C[C@H](COS(=O)OCCF)Oc1ccc(Cl)cc1Cl (stereo partly drawn) [1-(R,S)]								Hatching rate (%), Replicate 1 (listed as 1-(R, S)): 7.14%; Hatching rate (%), Replicate 2 (listed as 1-(R, S)): 8.39%; Hatching rate (%), Replicate 3 (listed as 1-(R, S)): 8.14%; Number of hatched larvae 5 days after insecticide delivery, Replicate 1 (listed as 1-(R, S)): 7; Number of hatched larvae 5 days after insecticide delivery, Replicate 2 (listed as 1-(R, S)): 12; Number of hatched larvae 5 days after insecticide delivery, Replicate 3 (listed as 1-(R, S)): 7
C[C@@H](COS(=O)OCCF)Oc1ccc(Cl)cc1Cl (stereo partly drawn) [1-(S,R)]								Hatching rate (%), Replicate 1 (listed as 1-(S, R)): 5.83%; Hatching rate (%), Replicate 2 (listed as 1-(S, R)): 5.75%; Hatching rate (%), Replicate 3 (listed as 1-(S, R)): 6.06%; Number of hatched larvae 5 days after insecticide delivery, Replicate 1 (listed as 1-(S, R)): 6; Number of hatched larvae 5 days after insecticide delivery, Replicate 2 (listed as 1-(S, R)): 5; Number of hatched larvae 5 days after insecticide delivery, Replicate 3 (listed as 1-(S, R)): 8
CCC(COS(=O)OCCF)Oc1ccc(Cl)cc1Cl [19′-(R,R)]	good inhibitory effects	0.00	0.00	0.00	0	0	0	
CC[C@@H](COS(=O)OCCF)Oc1ccc(Cl)cc1Cl (stereo partly drawn) [19′-(S,R)]								Hatching rate (%), Replicate 1 (listed as 19′-(S, R)): 9.57%; Hatching rate (%), Replicate 2 (listed as 19′-(S, R)): 10.28%; Hatching rate (%), Replicate 3 (listed as 19′-(S, R)): 10.08%; Number of hatched larvae 5 days after insecticide delivery, Replicate 1 (listed as 19′-(S, R)): 9; Number of hatched larvae 5 days after insecticide delivery, Replicate 2 (listed as 19′-(S, R)): 11; Number of hatched larvae 5 days after insecticide delivery, Replicate 3 (listed as 19′-(S, R)): 12
CC(C)(COS(=O)OCCF)Oc1ccc(Cl)cc1Cl (stereo not drawn) [R-10′]		10.29	10.31	9.62	14	10	10	
CC(C)(COc1ccc(Cl)cc1Cl)OS(=O)OCCF (stereo not drawn) [Compound R-10]		9.65	9.78	10.37	11	9	14	
